# System: Human Neuroblastoma IMR-32 Cell
# Experiment: Inhibition of production and secretion of Aβ in IMR-32 cells (ELISA of Aβ)
# Assay type: cell-based
# Settings: 24 hours incubation, Aβ in supernatant by ELISA
# Method: 1) Incubation of IMR-32 Cell
# IMR-32 cells (American Type Culture Collection Inc.) were seeded to 35 mmφPetri dish (FALCON Ltd.) at 37° C. for 2 to 3 days at 1.5×10^5 cells/petri dish. A DMSO solution containing test compound was dissolved in a 0.2% bovine serum albumin (Sigma Inc.)/Dulbecco's modified Eagle medium (Sigma Inc.), and a 1 mL of the mixture was added to the above Petri dish and the mixture was incubated for additional 24 hours. A 0.2% bovine serum albumin/Dulbecco's modified Eagle medium without the test compound was used as a control. The supernatant was collected and centrifuged at 5000 rpm for 5 minutes to precipitate a suspension cell. After centrifugation, the supernatant was used as a measurement sample of Aβ.
# (2) Determination by Enzyme-Linked Immunoassay (ELISA) of Aβ
# To a maxi sorp 96 well plate (Nunc Inc.) was added 50 μL portions of 4G8 antibody (Sigma Inc.) dissolved in 0.1M carbonate buffer (pH 9.5) and the mixture was allowed to stand at 4° C. overnight. […] After washing three times with PBST, color was developed by TMB substrate kit (Pias Inc.) and the calorimetric method (measured wavelength: 450 nm) was determined by a plate reader (ELx 808, BIO-TEK INSTRUMENTS Inc.).
structure (smiles),measurement,value
"C[C@@H](NC(=O)c1cc(C(=O)N[C@@H](Cc2ccccc2)[C@@H](O)C(=O)Nc2ncc[nH]2)cc(N(C)S(C)(=O)=O)c1)c1ccccc1 [Example 1, N-[(1S,2R)-1-Benzyl-2-hydroxy-3-(1H-imidazol-2-ylamino)-3-oxopropyl]-5-[methyl(methylsulfonyl)amino]-N′-[(1R)-1-phenylethyl]isophthalamide]",IC50,0.2 µM

# — patent US7816387B2, “β secretase inhibitor” (Dainippon Sumitomo Pharma Co., Ltd., priority 2005, dated 2010)
